According to US20100190846A1, “MICROBICIDAL AGENT AND MICROBICIDAL COMPOSITION” (priority 2006, published 2010):
Converted amounts (≈) assume the structure as drawn.

What was measured:
Assay in all cases: Agar dilution method microbicidal test
Assay type in all cases: cell-based
[1] = system: Candida sp. As to Growth on agar plate: key: +: grew; −: did not grow.
Protocol: (§1) As microbicidal test method for trans-p-coumaric acid, 3-hydroxypyridine, p-hydroxybenzaldehyde and vanillin, the agar dilution method was employed.
(§2) In agar dilution method, a solution in which a sample is dissolved is serially diluted several times, and each of the diluted sample solutions is mixed with agar medium to prepare plate agars having various sample concentration. Then bacteria is inoculated onto the plate agars. In cases where the sample has a microbicidal activity, the growth of the bacteria on the plates can be inhibited. The lowest concentration which can inhibit the growth of the bacteria is referred to as Minimum Inhibitory Concentration (MIC), thereby judging the degree of a microbicidal activity of the sample.
(§3) First, 400 mg of sample was dissolved in 1 mL of DMSO to prepare 400 mg/mL sample solution. Then 0.5 mL of this 400 mg/mL sample solution was diluted 2-fold to prepare 200 mg/mL sample solution. In the same manner, sample solutions of 100 mg/mL, 50.0 mg/mL, and 25.0 mg/mL were prepared. In addition, 300 mg/mL sample solution was prepared. Thereafter, 0.2 mL of these sample solutions each was mixed with 19.8 mL of BHI (Brain Heart Infusion Agar, Becton Dickinson, MD) medium, thereby preparing agar plates having the sample concentration of 4.0 mg/mL, 3.0 mg/mL, 2.0 mg/mL, 1.0 mg/mL, 0.5 mg/mL, and 0.25 mg/mL in dishes. […] Sterilized water was used for dissolving catechin, because catechin was insoluble in DMSO.
(§4) As test bacteria, 13 kinds of bacteria, i.e., Streptococcus pneumoniae, Streptococcus pyogenes, Enterococcus faecalis, Staphylococcus aureus, Escherichia coli, Salmonella sp., Yersinia enterocolitica, Vibrio parahaemolyticus, Pseudomonas aeruginosa, Bacillus cereus, Bacillus subtilis MB-32, Bacillus subtilis ATCC6633, and Candida sp., were used. These bacteria each was mixed with 2 mL of sterilized MHB^R liquid medium (Mueller Hinton Broth^R, Becton Dickinson, MD) to prepare bacterial suspension having turbidity 1 (bacterial concentration 10^8/mL). Previously, small test tubes were set into each cell of a grating and sterilized, and 1 mL of 13 bacterial suspensions were added into the small test tubes set in the grating, respectively. By using a microplanter (SAKUMA, model: MIT-P), 10 μL aliquot was collected from each test tube set in the grating and transferred to other test tube, and the transferred bacterial suspensions were diluted 100-fold (bacterial concentration 10^6/mL).
(§5) By using the microplanter, 10 μL (bacterial number […]) of this bacterial suspension was inoculated onto the plates containing the sample solution of various concentrations. The plates were incubated for 18 hours in an incubator at 37° C., and then a microbicidal activity of each compound was assessed.

[2] = system: Streptococcus pneumoniae; as to Growth on agar plate: key: +: grew; −: did not grow
Protocol: as §1, §2, §3, §4, §5

[3] = system: Escherichia coli; as to Growth on agar plate: key: +: grew; −: did not grow
Protocol: as §1, §2, §3, §4, §5

[4] = system: Staphylococcus aureus; as to Growth on agar plate: key: +: grew; −: did not grow
Protocol: as §1, §2, §3, §4, §5

[5] = system: Streptococcus pyogenes; as to Growth on agar plate: key: +: grew; −: did not grow
Protocol: as §1, §2, §3, §4, §5

[6] = system: Enterococcus faecalis; also: key: +: grew; −: did not grow
Protocol: as §1, §2, §3, §4, §5

[7] = system: Yersinia enterocolitica; as to Growth on agar plate: key: +: grew; −: did not grow
Protocol: as §1, §2, §3, §4, §5

[8] = system: Bacillus subtilis ATCC6633; as to Growth on agar plate: key: +: grew; −: did not grow
Protocol: as §1, §2, §3, §4, §5

[9] = system: Bacillus subtilis MB-32; as to Growth on agar plate: key: +: grew; −: did not grow
Protocol: as §1, §2, §3, §4, §5

[10] = system: Bacillus cereus; as to Growth on agar plate: key: +: grew; −: did not grow
Protocol: as §1, §2, §3, §4, §5

[11] = system: Salmonella sp. As to Growth on agar plate: key: +: grew; −: did not grow.
Protocol: as §1, §2, §3, §4, §5

[12] = system: Vibrio parahaemolyticus; as to Growth on agar plate: key: +: grew; −: did not grow
Protocol: as §1, §2, §3, §4, §5

[13] = system: Pseudomonas aeruginosa; as to Growth on agar plate: key: +: grew; −: did not grow
Protocol: as §1, §2, §3, §4, §5

[14] = BHI agar, 37° C., 18 hours, read-out: MIC

O=Cc1ccc(O)cc1 [p-Hydroxybenzaldehyde, p-hydroxybenzaldehyde]
activity (in words) [1]: had an activity | Growth on agar plate ([1]; 0.25 mg/mL): + | Growth on agar plate ([1]; 0.5 mg/mL): + | Growth on agar plate ([1]; 1.0 mg/mL): + | Growth on agar plate ([1]; 2.0 mg/mL): + | Growth on agar plate ([1]; 3.0 mg/mL): − | Growth on agar plate ([1]; 4.0 mg/mL): − | MIC [1, 14]: 3000 µg/mL (≈ 24.6 mM) | activity (in words) [2]: had an activity | Growth on agar plate ([2]; 0.25 mg/mL): + | Growth on agar plate ([2]; 0.5 mg/mL): + | Growth on agar plate ([2]; 1.0 mg/mL): + | Growth on agar plate ([2]; 2.0 mg/mL): − | Growth on agar plate ([2]; 3.0 mg/mL): − | Growth on agar plate ([2]; 4.0 mg/mL): − | MIC [2, 14]: 2000 µg/mL (≈ 16.4 mM) | activity (in words) [3]: had an activity | Growth on agar plate ([3]; 0.25 mg/mL): + | Growth on agar plate ([3]; 0.5 mg/mL): + | Growth on agar plate ([3]; 1.0 mg/mL): + | Growth on agar plate ([3]; 2.0 mg/mL): − | Growth on agar plate ([3]; 3.0 mg/mL): − | Growth on agar plate ([3]; 4.0 mg/mL): − | MIC [3, 14]: 2000 µg/mL (≈ 16.4 mM) | activity (in words) [4]: had an activity | Growth on agar plate ([4]; 0.25 mg/mL): + | Growth on agar plate ([4]; 0.5 mg/mL): + | Growth on agar plate ([4]; 1.0 mg/mL): + | Growth on agar plate ([4]; 2.0 mg/mL): + | Growth on agar plate ([4]; 3.0 mg/mL): − | Growth on agar plate ([4]; 4.0 mg/mL): − | MIC [4, 14]: 3000 µg/mL (≈ 24.6 mM) | activity (in words) [5]: had an activity | Growth on agar plate ([5]; 0.25 mg/mL): + | Growth on agar plate ([5]; 0.5 mg/mL): + | Growth on agar plate ([5]; 1.0 mg/mL): + | Growth on agar plate ([5]; 2.0 mg/mL): − | Growth on agar plate ([5]; 3.0 mg/mL): − | Growth on agar plate ([5]; 4.0 mg/mL): − | MIC [5, 14]: 2000 µg/mL (≈ 16.4 mM) | Growth on agar plate ([6]; 0.25 mg/mL): + | Growth on agar plate ([6]; 0.5 mg/mL): + | Growth on agar plate ([6]; 1.0 mg/mL): + | Growth on agar plate ([6]; 2.0 mg/mL): + | Growth on agar plate ([6]; 3.0 mg/mL): + | Growth on agar plate ([6]; 4.0 mg/mL): + | activity (in words) [7]: strong microbicidal activity | Growth on agar plate ([7]; 0.25 mg/mL): + | Growth on agar plate ([7]; 0.5 mg/mL): − | Growth on agar plate ([7]; 1.0 mg/mL): − | Growth on agar plate ([7]; 2.0 mg/mL): − | Growth on agar plate ([7]; 3.0 mg/mL): − | Growth on agar plate ([7]; 4.0 mg/mL): − | MIC [7, 14]: 500 µg/mL (≈ 4.09 mM) | MIC ([8]; ATCC6633, Bacillus subtilis ATCC 6633, BHI agar, 37° C., 18 hours, read-out: MIC): 3000 µg/mL (≈ 24.6 mM) | activity (in words) ([8]; Bacillus subtilis ATCC6633): had an activity | Growth on agar plate ([8]; Bacillus subtilis ATCC 6633, 0.25 mg/mL): + | Growth on agar plate ([8]; Bacillus subtilis ATCC 6633, 0.5 mg/mL): + | Growth on agar plate ([8]; Bacillus subtilis ATCC 6633, 1.0 mg/mL): + | Growth on agar plate ([8]; Bacillus subtilis ATCC 6633, 2.0 mg/mL): + | Growth on agar plate ([8]; Bacillus subtilis ATCC 6633, 3.0 mg/mL): − | Growth on agar plate ([8]; Bacillus subtilis ATCC 6633, 4.0 mg/mL): − | activity (in words) [9]: had an activity | Growth on agar plate ([9]; 0.25 mg/mL): + | Growth on agar plate ([9]; 0.5 mg/mL): + | Growth on agar plate ([9]; 1.0 mg/mL): + | Growth on agar plate ([9]; 2.0 mg/mL): + | Growth on agar plate ([9]; 3.0 mg/mL): + | Growth on agar plate ([9]; 4.0 mg/mL): − | MIC ([9]; MB32, BHI agar, 37° C., 18 hours, read-out: MIC): 3000 µg/mL (≈ 24.6 mM) | activity (in words) [10]: had an activity | Growth on agar plate ([10]; 0.25 mg/mL): + | Growth on agar plate ([10]; 0.5 mg/mL): + | Growth on agar plate ([10]; 1.0 mg/mL): + | Growth on agar plate ([10]; 2.0 mg/mL): + | Growth on agar plate ([10]; 3.0 mg/mL): − | Growth on agar plate ([10]; 4.0 mg/mL): − | MIC [10, 14]: 3000 µg/mL (≈ 24.6 mM) | activity (in words) [11]: had an activity | Growth on agar plate ([11]; 0.25 mg/mL): + | Growth on agar plate ([11]; 0.5 mg/mL): + | Growth on agar plate ([11]; 1.0 mg/mL): + | Growth on agar plate ([11]; 2.0 mg/mL): − | Growth on agar plate ([11]; 3.0 mg/mL): − | Growth on agar plate ([11]; 4.0 mg/mL): − | MIC [11, 14]: 2000 µg/mL (≈ 16.4 mM) | activity (in words) [12]: had an activity | Growth on agar plate ([12]; 0.25 mg/mL): + | Growth on agar plate ([12]; 0.5 mg/mL): + | Growth on agar plate ([12]; 1.0 mg/mL): + | Growth on agar plate ([12]; 2.0 mg/mL): − | Growth on agar plate ([12]; 3.0 mg/mL): − | Growth on agar plate ([12]; 4.0 mg/mL): − | MIC [12, 14]: 2000 µg/mL (≈ 16.4 mM) | activity (in words) [13]: had an activity | Growth on agar plate ([13]; 0.25 mg/mL): + | Growth on agar plate ([13]; 0.5 mg/mL): + | Growth on agar plate ([13]; 1.0 mg/mL): + | Growth on agar plate ([13]; 2.0 mg/mL): − | Growth on agar plate ([13]; 3.0 mg/mL): − | Growth on agar plate ([13]; 4.0 mg/mL): − | MIC [13, 14]: 2000 µg/mL (≈ 16.4 mM)
